Laboratory results taken from PubChem BioAssay AID248 (DTP/NCI, 2004).
Several values for one entry are separate records, joined by “and”; a condition that tells them apart may be missing. Equal values may be shown once. Inconclusive results and toxic doses are left out. Rule as the data show it: active = T/C of 150% or more; inactive = T/C below 125%.

Test system: L1210 leukemia ip in BDF1 mice, survival T/C
Experiment: NCI In Vivo Anticancer Drug Screen. Data for tumor model L1210 Leukemia (intraperitoneal) in B6D2F1 (BDF1) mice
Details: endpoint: mean survival time, higher = longer survival
Summary of the method: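 Value reflects the ratio of survival in compound-treated mice to survival in vehicle-treated controls, with both groups carrying the same transplanted tumor.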

[1] = dose: 100.0 mg/kg/injection, schedule: Q01DX001 (ip), vehicle: carboxymethylcellulose (CMC)
[2] = dose: 25.0 mg/kg/injection, schedule: Q01DX009 (ip), vehicle: Klucel (hydroxypropylcellulose) (HPC)
[3] = dose: 50.0 mg/kg/injection, schedule: Q01DX009 (ip), vehicle: Klucel (hydroxypropylcellulose) (HPC)
[4] = dose: 100.0 mg/kg/injection, schedule: Q01DX009 (ip), vehicle: Klucel (hydroxypropylcellulose) (HPC)
[5] = dose: 100.0 mg/kg/injection, schedule: Q01DX009 (ip), vehicle: saline with Tween-80
[6] = dose: 100.0 mg/kg/injection, schedule: Q04DX003 (ip), vehicle: saline with Tween-80
[7] = dose: 200.0 mg/kg/injection, schedule: Q01DX009 (ip), vehicle: saline with Tween-80
[8] = dose: 200.0 mg/kg/injection, schedule: Q04DX003 (ip), vehicle: saline with Tween-80
[9] = dose: 400.0 mg/kg/injection, schedule: Q04DX003 (ip), vehicle: saline with Tween-80
[10] = dose: 50.0 mg/kg/injection, schedule: Q01DX001 (ip), vehicle: saline
[11] = dose: 100.0 mg/kg/injection, schedule: Q01DX001 (ip), vehicle: saline
[12] = dose: 200.0 mg/kg/injection, schedule: Q01DX001 (ip), vehicle: saline
[13] = dose: 200.0 mg/kg/injection, schedule: Q01DX009 (ip), vehicle: Klucel (hydroxypropylcellulose) (HPC)
[14] = dose: 400.0 mg/kg/injection, schedule: Q01DX009 (ip), vehicle: saline with Tween-80
[15] = dose: 400.0 mg/kg/injection, schedule: Q01DX009 (ip), vehicle: Klucel (hydroxypropylcellulose) (HPC)

Measured: T/C

Nc1c(Cl)c(Cl)c2c(c1Cl)C(O)c1cc(Cl)ccc1-2 (centres undefined)
inactive: [1] 89 % of control | dose: 200.0 mg/kg/injection, schedule: Q01DX001 (ip), vehicle: carboxymethylcellulose (CMC) 95 % of control | dose: 400.0 mg/kg/injection, schedule: Q01DX001 (ip), vehicle: carboxymethylcellulose (CMC) 93 % of control

CCOC(=O)C1=C(C)NC(=O)NC1c1ccc(N(CCCl)CCCl)cc1Cl (centres undefined)
inactive: [2] 102 % of control | [3] 98 % of control | [4] 111 % of control

O=C(Nc1ccc(Cl)cc1)c1cccnc1
inactive: [5] 95 % of control | [6] 96 % of control | [7] 97 % of control | [8] 98 % of control | [9] 91 % of control

O=[N+]([O-])c1cccc([I+]c2ccccc2)c1
inactive: [10] 91 % of control | [11] 95 % of control | [12] 101 % of control

CCOC(=O)C(C)(O)C(C)(Cl)c1ccccc1 (centres undefined)
inactive: [2] 98 % of control | dose: 25.0 mg/kg/injection, schedule: Q04DX002 (ip), vehicle: saline 102 % of control | dose: 28.0 mg/kg/injection, schedule: Q01DX001 (ip), vehicle: saline 107 % of control | dose: 44.0 mg/kg/injection, schedule: Q01DX001 (ip), vehicle: saline 106 % of control | [3] 96 % of control | dose: 50.0 mg/kg/injection, schedule: Q04DX002 (ip), vehicle: saline 114 % of control | dose: 66.0 mg/kg/injection, schedule: Q01DX001 (ip), vehicle: saline 104 % of control | [11] 101 % of control | [4] 101 % of control | dose: 150.0 mg/kg/injection, schedule: Q01DX001 (ip), vehicle: saline 104 % of control | [13] 98 % of control | dose: 200.0 mg/kg/injection, schedule: Q04DX002 (ip), vehicle: saline 109 % of control and 111 % of control | dose: 400.0 mg/kg/injection, schedule: Q04DX002 (ip), vehicle: saline 114 % of control

COc1ccc2ccccc2c1C(=O)CCC(=O)O
inactive: dose: 87.0 mg/kg/injection, schedule: Q04DX003 (ip), vehicle: Klucel (hydroxypropylcellulose) (HPC) 97 % of control | dose: 175.0 mg/kg/injection, schedule: Q04DX003 (ip), vehicle: Klucel (hydroxypropylcellulose) (HPC) 93 % of control | dose: 350.0 mg/kg/injection, schedule: Q04DX003 (ip), vehicle: Klucel (hydroxypropylcellulose) (HPC) 102 % of control

NN(C(=O)c1ccc([N+](=O)[O-])cc1)C1CCCCC1
inactive: dose: 100.0 mg/kg/injection, schedule: Q04DX003 (ip), vehicle: acetone 96 % of control | dose: 200.0 mg/kg/injection, schedule: Q04DX003 (ip), vehicle: acetone 106 % of control | dose: 400.0 mg/kg/injection, schedule: Q04DX003 (ip), vehicle: acetone 93 % of control

CC1(C)C2CCC(C2)C12CC(F)(F)C(F)(F)S2 (centres undefined)
inactive: dose: 12.5 mg/kg/injection, schedule: Q01DX009 (ip), vehicle: saline with Tween-80 97 % of control | dose: 25.0 mg/kg/injection, schedule: Q01DX009 (ip), vehicle: saline with Tween-80 100 % of control | dose: 25.0 mg/kg/injection, schedule: Q04DX003 (ip), vehicle: saline with Tween-80 101 % of control | dose: 50.0 mg/kg/injection, schedule: Q04DX003 (ip), vehicle: saline with Tween-80 101 % of control | [6] 103 % of control

O=C(NC1CCCC2C(NC(=O)c3ccccc3)CCCC12)c1ccccc1 (centres undefined)
inactive: [11] 91 % of control | [5] 89 % of control | dose: 100.0 mg/kg/injection, schedule: Q04DX003 (ip), vehicle: saline 92 % of control | [12] 91 % of control | [7] 89 % of control | dose: 200.0 mg/kg/injection, schedule: Q04DX003 (ip), vehicle: saline 91 % of control | dose: 400.0 mg/kg/injection, schedule: Q01DX001 (ip), vehicle: saline 94 % of control | [14] 95 % of control | dose: 400.0 mg/kg/injection, schedule: Q04DX003 (ip), vehicle: saline 86 % of control

Cc1cccc(C)c1-n1c(=S)[nH]n(-c2ccccc2)c1=S
inactive: [5] 91 % of control | [6] 96 % of control | [7] 93 % of control | [8] 96 % of control | [14] 94 % of control | [9] 105 % of control

Nc1nc(SCc2ccc([N+](=O)[O-])cc2)c2nc(SCc3ccc([N+](=O)[O-])cc3)n(C3OC(CO)C(O)C3O)c2n1 (centres undefined)
inactive: dose: 50.0 mg/kg/injection, schedule: Q01DX005 (ip), vehicle: saline 102 % of control | dose: 100.0 mg/kg/injection, schedule: Q01DX005 (ip), vehicle: saline 118 % of control | dose: 200.0 mg/kg/injection, schedule: Q01DX005 (ip), vehicle: saline 115 % of control

Cc1cccc(NC(=O)COc2ccc(Cl)cc2)c1C
inactive: [4] 97 % of control | dose: 100.0 mg/kg/injection, schedule: Q04DX003 (ip), vehicle: Klucel (hydroxypropylcellulose) (HPC) 92 % of control | [13] 94 % of control | dose: 200.0 mg/kg/injection, schedule: Q04DX003 (ip), vehicle: Klucel (hydroxypropylcellulose) (HPC) 95 % of control | [15] 97 % of control | dose: 400.0 mg/kg/injection, schedule: Q04DX003 (ip), vehicle: Klucel (hydroxypropylcellulose) (HPC) 96 % of control

CCOC(=O)Nc1cc(Cl)ccc1OC
inactive: [4] 107 % of control | [13] 91 % of control | [15] 93 % of control

CC(=O)OCC1OC(Oc2c(C)cc([N+](=O)[O-])cc2[N+](=O)[O-])C(OC(C)=O)C(OC(C)=O)C1OC(C)=O (centres undefined)
inactive: [6] 94 % of control | [8] 100 % of control | [9] 100 % of control

C[C@]12CC[C@H]3[C@@H](CC[C@]4(O)C[C@@H](O)CC[C@]34CO)[C@@]1(O)CC[C@@H]2C1=CC(=O)OC1
inactive: [10] 106 % of control | [11] 100 % of control | [12] 100 % of control

CCCCCCCCN(NC(=O)c1ccccc1)S(=O)(=O)c1ccccc1
inactive: dose: 25.0 mg/kg/injection, schedule: Q01DX001 (ip), vehicle: carboxymethylcellulose (CMC) 100 % of control | dose: 25.0 mg/kg/injection, schedule: Q04DX003 (ip), vehicle: carboxymethylcellulose (CMC) 96 % of control | dose: 50.0 mg/kg/injection, schedule: Q01DX001 (ip), vehicle: carboxymethylcellulose (CMC) 100 % of control | dose: 50.0 mg/kg/injection, schedule: Q01DX009 (ip), vehicle: carboxymethylcellulose (CMC) 97 % of control and 89 % of control | dose: 50.0 mg/kg/injection, schedule: Q04DX002 (ip), vehicle: carboxymethylcellulose (CMC) 100 % of control and 107 % of control | dose: 50.0 mg/kg/injection, schedule: Q04DX003 (ip), vehicle: carboxymethylcellulose (CMC) 96 % of control | [1] 98 % of control | dose: 100.0 mg/kg/injection, schedule: Q01DX009 (ip), vehicle: carboxymethylcellulose (CMC) 100 % of control and 105 % of control | dose: 100.0 mg/kg/injection, schedule: Q04DX002 (ip), vehicle: carboxymethylcellulose (CMC) 100 % of control and 101 % of control | dose: 200.0 mg/kg/injection, schedule: Q04DX002 (ip), vehicle: carboxymethylcellulose (CMC) 102 % of control and 103 % of control

CCN(CC)C(=O)/C=C/c1ccccc1
inactive: [10] 102 % of control | [11] 96 % of control | [12] 96 % of control
